SMILES strings stand for the structures.

This assay concerns the target T1, NPF1.3 (Arabidopsis thaliana, UniProt Q9LYD5).
T1 construct: full-length cDNA in pOO2-GW; cRNA expressed in Xenopus laevis oocytes
T1 sequence (Q9LYD5 1-481): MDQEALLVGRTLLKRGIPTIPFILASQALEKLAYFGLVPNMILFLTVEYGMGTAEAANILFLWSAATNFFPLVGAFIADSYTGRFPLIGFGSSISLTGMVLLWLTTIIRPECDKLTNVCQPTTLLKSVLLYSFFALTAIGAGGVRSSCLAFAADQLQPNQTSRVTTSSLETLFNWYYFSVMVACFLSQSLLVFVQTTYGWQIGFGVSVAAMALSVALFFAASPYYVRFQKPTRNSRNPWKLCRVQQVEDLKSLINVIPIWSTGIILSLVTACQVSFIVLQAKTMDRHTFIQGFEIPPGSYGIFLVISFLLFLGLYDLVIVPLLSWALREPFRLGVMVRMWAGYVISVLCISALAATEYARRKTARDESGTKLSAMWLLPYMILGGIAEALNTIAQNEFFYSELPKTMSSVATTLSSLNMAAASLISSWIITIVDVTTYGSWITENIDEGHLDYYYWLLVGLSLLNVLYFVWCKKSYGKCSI
The assay can be described thus: two-electrode voltage clamp, inward current in Xenopus oocytes. The settings on record: 5 mM CsNO3 (Figure 5 legend, methods; text says KNO3); -120 mV. It counts as cell-based. (In general: Two-electrode voltage clamp holds a large cell at a set potential and records current.)

On to `O=[N+]([O-])O` [nitrate], for which the “two-electrode voltage clamp, inward current in Xenopus oocytes” value is given as “the nitrate-dependent inward currents were observed by KNO3 in NPF1.3-injected oocytes”.

Source of the values: PMC8839256, “Concept of Fluorescent Transport Activity Biosensor for the Characterization of the Arabidopsis NPF1.3 Activity of Nitrate” (Sensors (Basel, Switzerland), 2022).
